Measured values: ChEMBL document CHEMBL3997855, “Discovery of Fevipiprant (NVP-QAW039), a Potent and Selective DP2 Receptor Antagonist for Treatment of Asthma” (ACS Med Chem Lett, 2017)
pEC50, pIC50, pKd, pKi: −log10 of the molar value. Each block holds one molecule with its values, some of them ahead of it.

How the values were obtained:
[1] = target: T1, Prostaglandin D2 receptor 2 (Homo sapiens, UniProt Q9Y5Y4); assay: Displacement of [3H]NVP-QAW039 from human DP2 receptor expressed in CHO cell membranes by TopCount scintillation assay
T1 sequence (Q9Y5Y4 whole entry): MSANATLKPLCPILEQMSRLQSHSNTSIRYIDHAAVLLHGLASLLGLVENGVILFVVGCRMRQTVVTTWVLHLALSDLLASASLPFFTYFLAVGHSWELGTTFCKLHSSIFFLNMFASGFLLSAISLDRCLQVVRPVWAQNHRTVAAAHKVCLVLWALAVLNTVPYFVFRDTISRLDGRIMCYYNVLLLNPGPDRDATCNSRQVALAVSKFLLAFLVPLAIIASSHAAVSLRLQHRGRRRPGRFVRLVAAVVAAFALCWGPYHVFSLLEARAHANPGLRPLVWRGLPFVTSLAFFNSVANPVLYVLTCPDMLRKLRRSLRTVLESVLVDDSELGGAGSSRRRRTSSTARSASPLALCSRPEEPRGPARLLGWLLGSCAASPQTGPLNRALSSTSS

[2] = target: T1, Prostaglandin D2 receptor 2; assay: Displacement of [3H]PGD2 from human DP2 receptor expressed in CHO cell membranes after 60 mins by scintillation proximity assay
[3] = target: T1, Prostaglandin D2 receptor 2; assay: Antagonist activity at DP2 receptor in human isolated eosinophils assessed as inhibition of DK-PGD2-induced shape change preincubated for 5 mins followed by DK-PGD2 addition measured after 5 mins by flow cytometry
[4] = target: T2, Prostaglandin D2 receptor 2 (Homo sapiens) (UniProt Q9Y5Y4)
T2 sequence (whole entry): T1 sequence (Q9Y5Y4 whole entry)
Description: Displacement of [3H]NVP-QAW039 from human DP2 receptor expressed in CHO cell membranes assessed as dissociation half life by TopCount scintillation assay

[5] = target: T1, Prostaglandin D2 receptor 2; assay: Antagonist activity at DP2 receptor in CD4-positive human TH2 cells assessed as inhibition of DK-PGD2-induced IL-5 production after 6 to 8 hrs
[6] = Volume of distribution at steady state in Wistar rat at 0.5 mg/kg, iv or 3 mg/kg, po by LC-MS/MS analysis; assay type: ADME, organism-based; details: in vivo, read-out: Vdss
Canis familiaris = species: Canis familiaris; assay: Toxicity in dog; set-up: species or system Canis lupus familiaris; details: in vivo
[7] = target: Prostaglandin E2 receptor EP2 subtype (Homo sapiens, UniProt P43116); assay: Antagonist activity at EP2 receptor (unknown origin)
[8] = target: T3, Prostaglandin E2 receptor EP3 subtype (Homo sapiens, UniProt P43115); assay: Agonist activity at EP3 receptor (unknown origin)
T3 sequence (P43115 whole entry): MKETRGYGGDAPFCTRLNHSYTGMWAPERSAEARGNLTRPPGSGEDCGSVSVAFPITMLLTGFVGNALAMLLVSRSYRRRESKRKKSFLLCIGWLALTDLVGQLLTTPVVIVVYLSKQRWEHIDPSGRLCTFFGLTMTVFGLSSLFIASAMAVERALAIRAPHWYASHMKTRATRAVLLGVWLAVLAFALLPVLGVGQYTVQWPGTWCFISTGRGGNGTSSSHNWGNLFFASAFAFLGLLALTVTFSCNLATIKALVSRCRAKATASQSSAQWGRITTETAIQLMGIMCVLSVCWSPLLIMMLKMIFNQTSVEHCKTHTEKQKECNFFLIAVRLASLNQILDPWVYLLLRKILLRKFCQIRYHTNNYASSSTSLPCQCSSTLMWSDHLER

[9] = Half life in Wistar rat at 0.5 mg/kg, iv by LC-MS/MS analysis; assay type: ADME, organism-based; details: in vivo
Rattus norvegicus [10] = assay: (§1) In vivo antagonist activity at DP2 receptor in Sprague-Dawley rat DK-PGD2-induced pulmonary eosinophilia mechanistic model assessed inhibition of eosinophilia in broncho alveolar lavage fluid at 0.03 to 0.1 mg/kg, po pretreated for 40 mins starting at 2 hrs post IL-5 administration followed by DK-PGD2 administration measured after 2 hrs; assay type: functional, organism-based
Cytochrome P450 2D6 = Cytochrome P450 2D6 (Homo sapiens, UniProt P10635); assay: Inhibition of human CYP2D6; assay type: ADME
[11] = target: T3, Prostaglandin E2 receptor EP3 subtype; assay: Antagonist activity at EP3 receptor (unknown origin)
Prostacyclin receptor [12] = target: T4, Prostacyclin receptor (Homo sapiens, UniProt P43119); assay: Agonist activity at IP receptor (unknown origin)
[13] = Oral bioavailability in Wistar rat at 3 mg/kg by LC-MS/MS analysis; assay type: ADME, organism-based; details: in vivo
[14] = target: T5, Nuclear receptor subfamily 1 group I member 2 (Homo sapiens, UniProt O75469); assay: Activation of PXR (unknown origin) assessed as CYP3A4 induction; assay type: ADME
T5 sequence (O75469 whole entry): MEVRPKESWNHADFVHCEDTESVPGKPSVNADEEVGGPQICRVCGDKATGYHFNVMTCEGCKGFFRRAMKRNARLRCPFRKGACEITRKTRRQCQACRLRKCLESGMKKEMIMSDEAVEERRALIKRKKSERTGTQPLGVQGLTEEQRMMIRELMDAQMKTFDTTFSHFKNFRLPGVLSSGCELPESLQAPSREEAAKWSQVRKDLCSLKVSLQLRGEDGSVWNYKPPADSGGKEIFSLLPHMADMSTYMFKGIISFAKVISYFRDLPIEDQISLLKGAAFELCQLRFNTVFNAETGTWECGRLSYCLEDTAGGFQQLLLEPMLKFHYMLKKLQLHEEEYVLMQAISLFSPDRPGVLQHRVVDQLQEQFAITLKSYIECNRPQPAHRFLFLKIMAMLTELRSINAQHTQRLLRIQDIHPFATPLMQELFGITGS

[15] = target: T6, Prostaglandin D2 receptor (Homo sapiens, UniProt Q13258); assay: Antagonist activity at DP1 receptor (unknown origin)
T6 sequence (Q13258 whole entry): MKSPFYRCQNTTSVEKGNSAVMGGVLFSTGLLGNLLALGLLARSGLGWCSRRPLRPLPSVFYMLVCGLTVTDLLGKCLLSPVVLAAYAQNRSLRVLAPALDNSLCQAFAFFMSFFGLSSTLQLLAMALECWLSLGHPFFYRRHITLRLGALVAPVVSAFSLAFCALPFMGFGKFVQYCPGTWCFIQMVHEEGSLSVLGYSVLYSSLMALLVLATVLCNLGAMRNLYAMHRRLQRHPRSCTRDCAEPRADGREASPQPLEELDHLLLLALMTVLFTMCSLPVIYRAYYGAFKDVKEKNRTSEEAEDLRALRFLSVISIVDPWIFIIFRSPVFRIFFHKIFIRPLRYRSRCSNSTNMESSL

[16] = target: Prostaglandin F2-alpha receptor (Homo sapiens, UniProt P43088); assay: Antagonist activity at FP receptor (unknown origin)
Rattus norvegicus [17] = species: Rattus norvegicus; assay: Toxicity in rat; details: in vivo
Cytochrome P450 2C9 = Cytochrome P450 2C9 (Homo sapiens, UniProt P11712); assay: Inhibition of human CYP2C9; assay type: ADME
Cytochrome P450 3A4 = Cytochrome P450 3A4 (Homo sapiens, UniProt P08684); assay: Inhibition of human CYP3A4; assay type: ADME
[18] = target: T1, Prostaglandin D2 receptor 2; assay: Antagonist activity at DP2 receptor in CD4-positive human TH2 cells assessed as inhibition of PGD2-induced IL-4 production preincubated for 30 mins followed by PGD2 addition measured after 6 hrs
[19] = Clearance in Wistar rat at 0.5 mg/kg, iv or 3 mg/kg, po by LC-MS/MS analysis; assay type: ADME, organism-based; details: in vivo
Thromboxane A2 receptor = target: T7, Thromboxane A2 receptor (Homo sapiens, UniProt P21731); assay: Antagonist activity at TP receptor (unknown origin)
T7 sequence (P21731 whole entry): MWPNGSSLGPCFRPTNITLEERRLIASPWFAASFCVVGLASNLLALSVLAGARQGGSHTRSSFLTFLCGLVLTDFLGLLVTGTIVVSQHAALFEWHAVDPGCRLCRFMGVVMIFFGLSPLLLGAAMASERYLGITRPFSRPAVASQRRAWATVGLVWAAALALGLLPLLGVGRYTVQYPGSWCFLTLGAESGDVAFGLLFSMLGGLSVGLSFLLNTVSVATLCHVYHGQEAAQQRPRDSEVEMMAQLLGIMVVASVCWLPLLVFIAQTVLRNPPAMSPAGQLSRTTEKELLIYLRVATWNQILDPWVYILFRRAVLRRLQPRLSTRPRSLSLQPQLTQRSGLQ

[20] = target: Prostaglandin E2 receptor EP4 subtype (Homo sapiens, UniProt P35408); assay: Antagonist activity at EP4 receptor (unknown origin)
Prostacyclin receptor [21] = target: T4, Prostacyclin receptor; assay: Antagonist activity at IP receptor (unknown origin)
[22] = Fraction unbound in plasma of Sprague-Dawley rat DK-PGD2-induced pulmonary eosinophilia mechanistic model at 0.03 to 0.1 mg/kg, po by equilibrium dialysis method; assay type: ADME, organism-based
[23] = target: T1, Prostaglandin D2 receptor 2; assay: Antagonist activity at DP2 receptor in CD4-positive human TH2 cells assessed as inhibition of DK-PGD2-induced IL-13 production after 6 to 8 hrs
Cytochrome P450 1A2 = target: T8, Cytochrome P450 1A2 (Homo sapiens, UniProt P05177); assay: Inhibition of human CYP1A2; assay type: ADME
T8 sequence (P05177 whole entry): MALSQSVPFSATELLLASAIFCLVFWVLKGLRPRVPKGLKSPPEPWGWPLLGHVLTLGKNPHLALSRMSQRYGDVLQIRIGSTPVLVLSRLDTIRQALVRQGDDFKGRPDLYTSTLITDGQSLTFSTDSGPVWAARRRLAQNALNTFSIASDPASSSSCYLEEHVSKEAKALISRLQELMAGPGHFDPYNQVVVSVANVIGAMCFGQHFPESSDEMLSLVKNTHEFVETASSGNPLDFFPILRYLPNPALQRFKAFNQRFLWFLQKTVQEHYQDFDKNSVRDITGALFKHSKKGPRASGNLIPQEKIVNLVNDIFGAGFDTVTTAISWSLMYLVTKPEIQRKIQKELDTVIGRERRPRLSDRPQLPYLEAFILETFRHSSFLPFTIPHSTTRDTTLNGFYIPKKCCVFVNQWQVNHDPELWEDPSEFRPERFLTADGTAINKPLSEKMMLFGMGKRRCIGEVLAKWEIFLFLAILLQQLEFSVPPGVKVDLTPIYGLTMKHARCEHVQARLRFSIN

Rattus norvegicus [24] = assay: as §1, with “0.1” for “0.03”, “0.3” for “0.1”; assay type: functional, organism-based
[25] = Antagonist activity at DP2 receptor in human whole assessed as inhibition of DK-PGD2-induced eosinophils shape change preincubated for 5 mins followed by DK-PGD2 addition measured after 5 mins by flow cytometry

T4 sequence (P43119 whole entry): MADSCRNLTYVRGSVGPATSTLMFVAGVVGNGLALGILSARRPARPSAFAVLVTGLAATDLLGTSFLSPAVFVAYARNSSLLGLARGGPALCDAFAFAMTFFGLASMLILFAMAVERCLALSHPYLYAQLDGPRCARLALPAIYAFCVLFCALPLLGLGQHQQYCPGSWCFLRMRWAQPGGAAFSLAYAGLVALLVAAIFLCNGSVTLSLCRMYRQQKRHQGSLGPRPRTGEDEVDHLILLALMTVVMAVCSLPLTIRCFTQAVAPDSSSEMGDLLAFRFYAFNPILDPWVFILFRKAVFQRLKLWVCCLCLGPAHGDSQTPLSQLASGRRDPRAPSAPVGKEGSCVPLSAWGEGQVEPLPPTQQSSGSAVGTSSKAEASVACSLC
Sequence of Prostaglandin E2 receptor EP2 subtype (P43116 whole entry): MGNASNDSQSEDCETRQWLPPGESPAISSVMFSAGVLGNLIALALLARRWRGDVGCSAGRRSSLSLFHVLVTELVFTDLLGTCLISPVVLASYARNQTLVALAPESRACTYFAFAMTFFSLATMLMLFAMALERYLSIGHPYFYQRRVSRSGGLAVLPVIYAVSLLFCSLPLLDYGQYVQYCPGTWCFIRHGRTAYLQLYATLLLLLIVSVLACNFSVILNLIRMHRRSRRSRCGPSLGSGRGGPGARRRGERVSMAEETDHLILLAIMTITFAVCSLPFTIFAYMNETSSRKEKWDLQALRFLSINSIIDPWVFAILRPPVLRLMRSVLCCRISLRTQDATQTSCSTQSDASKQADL
Sequence of Prostaglandin F2-alpha receptor (P43088 whole entry): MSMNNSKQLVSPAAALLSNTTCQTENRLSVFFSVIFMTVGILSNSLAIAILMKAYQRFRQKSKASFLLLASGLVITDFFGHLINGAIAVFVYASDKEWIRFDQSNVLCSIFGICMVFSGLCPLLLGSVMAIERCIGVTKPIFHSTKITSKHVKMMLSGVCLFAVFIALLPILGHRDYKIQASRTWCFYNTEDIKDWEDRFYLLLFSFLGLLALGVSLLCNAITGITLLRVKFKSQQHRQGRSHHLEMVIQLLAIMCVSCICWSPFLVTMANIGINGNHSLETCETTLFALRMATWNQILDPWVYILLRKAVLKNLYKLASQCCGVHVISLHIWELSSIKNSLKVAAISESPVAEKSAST
Sequence of Cytochrome P450 2D6 (P10635 whole entry): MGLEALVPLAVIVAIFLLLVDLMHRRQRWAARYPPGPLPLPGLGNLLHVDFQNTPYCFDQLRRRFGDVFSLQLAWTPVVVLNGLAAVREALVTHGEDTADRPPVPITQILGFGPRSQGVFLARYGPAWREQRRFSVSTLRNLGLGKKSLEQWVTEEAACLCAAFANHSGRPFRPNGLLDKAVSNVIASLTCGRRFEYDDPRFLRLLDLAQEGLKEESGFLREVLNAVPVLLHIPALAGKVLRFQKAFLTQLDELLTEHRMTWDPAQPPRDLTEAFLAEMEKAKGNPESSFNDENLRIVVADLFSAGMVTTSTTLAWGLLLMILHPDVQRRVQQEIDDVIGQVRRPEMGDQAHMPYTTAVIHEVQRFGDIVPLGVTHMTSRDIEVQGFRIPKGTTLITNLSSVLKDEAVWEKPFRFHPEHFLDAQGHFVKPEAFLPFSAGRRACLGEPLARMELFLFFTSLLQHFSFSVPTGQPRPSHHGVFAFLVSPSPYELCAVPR
Sequence of Cytochrome P450 3A4 (P08684 whole entry): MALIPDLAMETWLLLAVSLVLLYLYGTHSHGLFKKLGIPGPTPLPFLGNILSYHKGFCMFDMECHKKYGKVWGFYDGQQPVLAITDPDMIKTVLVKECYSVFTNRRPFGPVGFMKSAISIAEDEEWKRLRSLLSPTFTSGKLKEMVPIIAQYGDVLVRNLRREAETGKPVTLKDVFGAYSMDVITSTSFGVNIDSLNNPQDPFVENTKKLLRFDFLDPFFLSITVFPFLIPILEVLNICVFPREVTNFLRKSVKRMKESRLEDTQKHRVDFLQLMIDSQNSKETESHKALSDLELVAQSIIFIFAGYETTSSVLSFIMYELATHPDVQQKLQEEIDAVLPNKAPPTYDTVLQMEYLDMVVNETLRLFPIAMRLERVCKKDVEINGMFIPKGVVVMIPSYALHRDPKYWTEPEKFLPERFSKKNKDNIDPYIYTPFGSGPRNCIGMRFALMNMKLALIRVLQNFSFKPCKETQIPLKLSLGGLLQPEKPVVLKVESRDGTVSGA
Sequence of Cytochrome P450 2C9 (P11712 whole entry): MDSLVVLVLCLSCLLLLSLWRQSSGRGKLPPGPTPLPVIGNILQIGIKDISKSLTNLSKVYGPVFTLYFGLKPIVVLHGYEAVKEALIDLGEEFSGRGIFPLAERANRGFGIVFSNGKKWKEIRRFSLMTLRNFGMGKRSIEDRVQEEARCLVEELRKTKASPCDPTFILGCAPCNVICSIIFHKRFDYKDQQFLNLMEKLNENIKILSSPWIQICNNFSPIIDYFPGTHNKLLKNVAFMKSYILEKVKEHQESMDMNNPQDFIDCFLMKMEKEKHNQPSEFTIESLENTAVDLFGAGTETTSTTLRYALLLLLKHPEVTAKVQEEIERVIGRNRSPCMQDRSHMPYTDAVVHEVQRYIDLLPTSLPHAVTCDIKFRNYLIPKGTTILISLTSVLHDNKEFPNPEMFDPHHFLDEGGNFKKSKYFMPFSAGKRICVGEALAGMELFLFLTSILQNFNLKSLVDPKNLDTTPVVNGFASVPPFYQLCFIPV
Sequence of Prostaglandin E2 receptor EP4 subtype (P35408 whole entry): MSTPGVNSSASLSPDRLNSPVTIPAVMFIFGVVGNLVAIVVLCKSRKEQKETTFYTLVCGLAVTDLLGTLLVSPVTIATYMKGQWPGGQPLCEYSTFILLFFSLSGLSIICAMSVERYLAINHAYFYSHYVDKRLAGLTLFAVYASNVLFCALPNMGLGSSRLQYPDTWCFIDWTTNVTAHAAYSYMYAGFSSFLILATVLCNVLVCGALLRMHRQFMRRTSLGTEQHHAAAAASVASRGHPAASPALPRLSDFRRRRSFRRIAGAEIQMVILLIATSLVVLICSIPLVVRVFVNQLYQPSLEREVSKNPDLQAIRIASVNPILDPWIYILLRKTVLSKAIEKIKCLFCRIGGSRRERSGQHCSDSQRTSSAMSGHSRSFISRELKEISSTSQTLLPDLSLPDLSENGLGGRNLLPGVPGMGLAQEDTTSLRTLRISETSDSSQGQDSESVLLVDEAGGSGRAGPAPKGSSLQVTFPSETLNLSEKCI

Structure (SMILES): Cc1c(CC(=O)O)c2ccccc2n1Cc1ccc(S(C)(=O)=O)cc1
- pKd [1]: 7.60
- pKi [2]: 7.72
- pIC50 [3]: 7.70
- T1/2 [4]: 0.18 min

Structure (SMILES): Cc1cc(S(C)(=O)=O)ccc1Cn1c(C)c(CC(=O)O)c2cccnc21
- pIC50 [3]: 8.40

Structure (SMILES): Cc1c(CC(=O)O)c2cccnc2n1Cc1ccc(S(C)(=O)=O)cc1C(F)(F)F [FEVIPIPRANT]
- pIC50 [5]: 8.59
- pKd [1]: 8.99
- Vd [6]: 1.1 L/kg
- Activity (Canis familiaris): Non-Toxic
- pIC50 [7]: < 5.00
- pEC50 [8]: < 5.00
- half-life [9]: 792 min
- pIC50 (Rattus norvegicus [10]): 8.19
- pIC50 [3]: 9.40
- pIC50 (Cytochrome P450 2D6): < 4.00
- pIC50 [11]: < 5.00
- pEC50 (Prostacyclin receptor [12]): < 5.00
- T1/2 [4]: 12 min
- bioavailability [13]: 43%
- Activity [14]: Not Active
- pIC50 [15]: < 5.00
- pIC50 [16]: < 5.00
- Activity (Rattus norvegicus [17]): Non-Toxic
- pIC50 (Cytochrome P450 2C9): < 4.00
- pIC50 (Cytochrome P450 3A4): < 4.00
- pIC50 [18]: 8.51
- clearance [19]: 0.096 L/h/kg
- pIC50 (Thromboxane A2 receptor): < 5.00
- pIC50 [20]: < 5.00
- pIC50 (Prostacyclin receptor [21]): < 5.00
- fraction unbound [22]: 0.08
- pIC50 [23]: 8.85
- pIC50 (Cytochrome P450 1A2): < 4.00

Structure (SMILES): Cc1c(CC(=O)O)c2cccnc2n1Cc1ccc(S(=O)(=O)C(C)C)cc1
- pKi [2]: 7.07

Structure (SMILES): Cc1c(CC(=O)O)c2cccnc2n1Cc1ccc(S(C)(=O)=O)cc1 [QAV680]
- pIC50 [5]: 7.23
- pKd [1]: 7.82
- pIC50 (Rattus norvegicus [24]): 7.40
- pIC50 [25]: 7.51
- pIC50 [3]: 8.30
- T1/2 [4]: 1.29 min
- pIC50 [23]: 7.60

Results, then the molecule that gave them:

- pKi [2]: 5.87
Structure (SMILES): Cc1cnc2c(c1)c(CC(=O)O)c(C)n2Cc1ccc(S(C)(=O)=O)cc1

- pKi [2]: 7.14
Structure (SMILES): Cc1ccc2c(CC(=O)O)c(C)n(Cc3ccc(S(C)(=O)=O)cc3)c2n1

- pKi [2]: 6.13
Structure (SMILES): Cc1c(CC(=O)O)c2cc(Br)cnc2n1Cc1ccc(S(C)(=O)=O)cc1
